Data reported in article PMC10287695, “Non-covalent inhibitors of thioredoxin glutathione reductase with schistosomicidal activity in vivo” (Nature Communications, 2023).
“And” between values parts separate entries of the source, which are not always exact repeats. Identical values can stand only once.

Columns and labels:
[1] = biological target: T1, TGR (Schistosoma mansoni, UniProt Q962Y6); experiment: Time dependence of inhibition; type: biochemical; conditions: panel c, replicates; for TGR activity relative to dmso, time 0: time 0 (time unit not given); for TGR activity relative to dmso, time 5: time 5 (time unit not given); for TGR activity relative to dmso, time 10: time 10 (time unit not given); for TGR activity relative to dmso, time 15: time 15 (time unit not given); for TGR activity relative to dmso, time 30: time 30 (time unit not given)
T1 construct: made in house
T1 sequence (Q962Y6 1-598): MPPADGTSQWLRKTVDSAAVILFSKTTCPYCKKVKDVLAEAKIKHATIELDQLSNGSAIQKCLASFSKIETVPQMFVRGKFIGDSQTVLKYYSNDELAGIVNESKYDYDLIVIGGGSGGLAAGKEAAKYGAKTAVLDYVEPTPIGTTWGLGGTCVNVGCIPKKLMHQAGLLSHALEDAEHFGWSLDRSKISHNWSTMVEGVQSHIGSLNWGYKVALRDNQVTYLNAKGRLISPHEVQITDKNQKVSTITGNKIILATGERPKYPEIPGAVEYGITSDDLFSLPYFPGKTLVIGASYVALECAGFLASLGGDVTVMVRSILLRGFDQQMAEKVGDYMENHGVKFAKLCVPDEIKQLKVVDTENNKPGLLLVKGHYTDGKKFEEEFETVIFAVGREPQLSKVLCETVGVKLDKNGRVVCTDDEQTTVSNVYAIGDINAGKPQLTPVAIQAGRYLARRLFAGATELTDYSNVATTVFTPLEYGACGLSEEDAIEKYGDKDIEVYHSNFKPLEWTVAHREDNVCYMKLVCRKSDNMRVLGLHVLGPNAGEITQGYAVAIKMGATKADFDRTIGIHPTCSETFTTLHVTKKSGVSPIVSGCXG
Procedure: TGR was incubated at room temperature (up to 6 h) and at 4 °C for 6 to 24 h with 50 µM inhibitor and 100 µM NADPH for the indicated times. Then DTNB (3 mM) and NADPH (100 µM) were added, and the reaction was monitored at A412 for 5 min. The assay was done in triplicate.

[2] = biological target: T1, TGR; experiment: Thermal shift assay (TSA); type: binding; set-up: key to Avg. Tm / Tm, replicate 1-3: Tm in °C, from a 25–95 °C melt curve; conditions: for Avg. Tm / Tm, replicate 1-3: TGR + 100 µM compound; for Avg. Tm, + 500 µM NADPH / Tm, replicate 1-3, + 500 µM NADPH: TGR + 100 µM compound + 500 µM NADPH; for Tm, replicate 1-3, + 500 µM NADPH / Tm, replicate 1-3: single replicates; for Tm, replicate 1-3, + 500 µM NADPH: in °C (unit assumed)
Procedure: Samples were prepared by using a final concentration of 0.25 mg/ml TGR diluted in TGR reaction buffer to the desired volume. To evaluate reduced TGR, 500 µM NADPH was added. […] After the preincubation period, 20 µL samples were pipetted into a BioRad un-skirted PCR 96 well plate and sealed with MicroAmp^TM Optical Adhesive film. The plate was then centrifuged for 5 min at 1000 × g. TSA was carried out using a BioRad CFX Connect qPCR instrument with a melt curve setting of 25 − 95 °C, in increments of 0.5 °C/10 seconds. The SYBR green channel was used to detect fluorescence as the wavelength of flavin fluorescence overlaps with that of SYBR green. BioRad CFX Maestro 5.2 was used to analyze TSA data.

[3] = system: S. japonicum adult worms; experiment: Schistosomicidal activity ex vivo, S. japonicum adult worms; type: cell-based; conditions: for LD50 ex vivo S. japonicum adult: 48 h exposure; for viability at 5 µM / viability at 15 µM / viability at 30 µM: Schistosoma japonicum, S. japonicum adult worms, 48 hr; for viability at 5 µM: Conc. 5 µM; for viability at 15 µM: Conc. 15 µM; for viability at 30 µM: Conc. 30 µM
Procedure: Three-week old, female Swiss-Webster mice obtained from the Charles River were housed in the Comparative Research Center of Rush University Medical Center. Mice were infected by percutaneous tail exposure to about 200 S. mansoni or 50 S. japonicum cercaria for adult worms and about 1000 cercaria for juvenile S. mansoni worms through natural transdermal penetration of the cercariae for 1 h[81].
DMSO formulated compounds were diluted with phenol red free M199 medium or RPMI medium for NTS or juvenile and adult worms, respectively, at <1% DMSO final concentrations. NTS, juvenile and adult worms from overnight cultures were tested against compounds in triplicate. Controls were treated with DMSO alone or 5 µM AF as a positive control in appropriate medium. […] Schistosome viabilities in the presence of the compounds were assessed using this formula: % Viability = Averages of Test / Averages of DMSO Control x 100.

[4] = Cytotoxicity in mammalian cells (Cell Titer Glo); type: cell-based; conditions: African green monkey, Vero cells; for viability at 24 h, 5 µM: Conc. 5 µM; for viability at 24 h, 10 µM: Conc. 10 µM; for viability at 24 h, 25 µM: Conc. 25 µM; for viability at 24 h, 35 µM: Conc. 35 µM; for viability at 24 h, 50 µM: Conc. 50 µM
Procedure: Following overnight incubation, formulated DMSO-compound stock solutions were diluted with DMEM at <1% DMSO final concentrations. […] Vero cells treated similarly with different concentrations of PZQ, MZM and AF (Cayman Chemicals) were used as positive controls.

Compound | TGR activity relative to dmso, time 0 [1] | TGR activity relative to dmso, time 5 [1] | TGR activity relative to dmso, time 10 [1] | TGR activity relative to dmso, time 15 [1] | TGR activity relative to dmso, time 30 [1] | Avg. Tm [2] | Avg. Tm, + 500 µM NADPH [2] | Tm, replicate 1-3, + 500 µM NADPH [2] | Tm, replicate 1-3 [2] | LD50 ex vivo S. japonicum adult [3] | viability at 5 µM [3] | viability at 15 µM [3] | viability at 30 µM [3] | viability at 24 h, 5 µM [4] | viability at 24 h, 10 µM [4] | viability at 24 h, 25 µM [4] | viability at 24 h, 35 µM [4] | viability at 24 h, 50 µM [4] | viability at 24 h, 1 µM ([4]; Conc. 1 µM) | viability at 24 h, 100 µM ([4]; Conc. 100 µM)
Cc1oc(C2CCCCC2)nc1C(=O)N[C@@H]1C[C@@H]2C[C@H]([C@H]1C)C2(C)C [Compound 7] | 10.9848 and 15.3969 and 9.648 | 3.59 and 2.532 and 3.143 | 6.629 and 6.846 and 6.371 | 7.462 and 7.906 and 7.375 | 9.0362 and 7.137 and 8.678 | 73.6667 | 73.5 | 73.5 | 73.5 (2×) and 74 | 26.8 ± 1.62 µM | 89% | 71.1% | 39.8% | 92% | 91.8% | 89.5% | 85.8% | 83.6% | – | –
C[C@@H]1[C@H]2C[C@@H](C[C@H]1NCc1nc3ccccc3n1C1CCCCCC1)C2(C)C [Compound 8] | 81.9258 and 91.2824 and 94.0371 | 16.4661 and 22.6942 and 32.7859 | 10.3137 and 9.575 and 9.146 | 4.106 and 4.258 and 6.77 | 0.4436 and 0.7059 and 0.3756 | 73.8333 | 70 | 69 and 70 and 71 | 73.5 and 74 (2×) | 25.8 ± 1.87 µM | 70.6% | 60.8% | 43.4% | 93.8% | 88.6% | 69.7% | – | 44.6% | 97% | 4.99%
CCc1ccccc1-c1nc(CN[C@@H]2C[C@@H]3C[C@H]([C@H]2C)C3(C)C)c(C)o1 [Compound 2] | – | – | – | – | – | – | – | – | – | 11.1 ± 1.35 µM | 52.5% | 30.6% | 3.64% | 99.8% | 98.9% | 95.6% | 75.4% | 53.1% | – | –
